Results on eleven molecules are retold here after publication PMC9151520 (Archives of Toxicology, 2022).

Series [1] relates to p53RE-bla HCT-116 cells.
For series [2], the system named is p53 signaling (p53RE-bla HCT-116 cells).
For series [3] the test system is unchanged. This is another data set of the same source.
For series [4] the test system is unchanged. Put plainly: cells. Type of series: cell-based.
[5] abbreviates: Homo sapiens, HCT-116, read-out: p53 activation EC50, cherry pick confirmation.
Setting [6] is: Homo sapiens, HCT-116, read-out: p53 activation EC50, primary screening.
[7] abbreviates: Homo sapiens, HCT-116, read-out: p53 activation efficacy, cherry pick confirmation.
Where [8] appears, read: Homo sapiens, HCT-116, read-out: p53 activation efficacy, primary screening.
[9] abbreviates: read-out: p53 activation EC50, cherry pick confirmation.
The mark [10] stands for this setting: read-out: p53 activation EC50, primary screening.
[11] abbreviates: read-out: Viability EC50, cherry pick confirmation.
Setting [12] is: read-out: Viability EC50, primary screening.

“And” between values parts separate entries of the source, which are not always exact repeats. Identical values can stand only once. Counter-ions that a name gives are not always drawn. Like-named read-outs stand apart in the source and are kept apart here.

A word on the EC50: it is the concentration at which the effect is half-maximal. As to `Cc1cc(C2CCCCC2)n(O)c(=O)c1` [Ciclopirox olamine], in series [1], the “EC50, viability, cherry pick confirmation” value is “inactive”; the “EC50, viability, primary screening” value is “inactive”; the “Efficacy, viability, cherry pick confirmation” value was “inactive”; the “Efficacy, viability, primary screening” value was “inactive”. In addition, in series [2], the “EC50, p53 activation, cherry pick confirmation” value was “inactive”; the “EC50, p53 activation, primary screening” value was “inactive”; the “Efficacy, p53 activation, cherry pick confirmation” value was “inactive”; the “Efficacy, p53 activation, primary screening” value was “inactive”. For the same molecule, in series [3], the “EC50, p53 activation, cherry pick confirmation” value is “inactive”; the “EC50, p53 activation, primary screening” value is “inactive”; the “Efficacy, p53 activation, cherry pick confirmation” value is “inactive”; the “Efficacy, p53 activation, primary screening” value is “inactive”. In series [4] (Homo sapiens, HCT-116, read-out: EC50, p53 activation, cherry pick confirmation), the EC50 was found to be 26.5 µM. Further, in series [4] (Homo sapiens, HCT-116, read-out: EC50, p53 activation, primary screening), the 50% effective concentration (EC50) was found to be 16.3 µM. In addition, in series [4] (Homo sapiens, HCT-116, read-out: Efficacy, p53 activation, cherry pick confirmation), the Emax worked out at 57.2%. The Emax in series [4] (Homo sapiens, HCT-116, read-out: Efficacy, p53 activation, primary screening) is 26%.
For the molecule `CCCCNC(=O)n1c(NC(=O)OC)nc2ccccc21` [Benomyl], in series [1], the “Viability EC50, cherry pick confirmation” value is “inactive”; the “Viability EC50, primary screening” value was “inactive”; the “Viability efficacy, cherry pick confirmation” value was “inactive”; the “Viability efficacy, primary screening” value is “inactive”. In series [2], the “p53 activation EC50, cherry pick confirmation” value is “inactive”; the “p53 activation EC50, primary screening” value was “inactive”; the “p53 activation efficacy, cherry pick confirmation” value is “inactive”; the “p53 activation efficacy, primary screening” value is “inactive”. Besides, in series [3], the “p53 activation EC50, cherry pick confirmation” value is “inactive”; the “p53 activation EC50, primary screening” value is “inactive”; the “p53 activation efficacy, cherry pick confirmation” value is “inactive”; the “p53 activation efficacy, primary screening” value is “inactive”. In addition, the concentration for a half-maximal effect (EC50) in series [4] (setting [5]) stood at 8.93 µM. For the same molecule, the 50% effective concentration (EC50) in series [4] (setting [6]) is 11.4 µM. In series [4] (setting [7]), the Emax was determined as 38.5%. Further, the Emax in series [4] (setting [8]) was found to be 88.9%.
`CCCCNC(=O)OCC#CI` [3-Iodo-2-propynyl-N-butylcarbamate]: in series [1], the “Viability EC50, cherry pick confirmation” value is “inactive”; the “Viability EC50, primary screening” value is “inactive”; the “Viability efficacy, cherry pick confirmation” value was “inactive”; the “Viability efficacy, primary screening” value was “inactive”. For the same molecule, in series [2], the “p53 activation EC50, cherry pick confirmation” value is “inactive”; the “p53 activation EC50, primary screening” value was “inactive”; the “p53 activation efficacy, cherry pick confirmation” value was “inactive”; the “p53 activation efficacy, primary screening” value was “inactive”. Also, in series [3], the “p53 activation EC50, cherry pick confirmation” value is “inactive”; the “p53 activation EC50, primary screening” value was “inactive”; the “p53 activation efficacy, cherry pick confirmation” value is “inactive”; the “p53 activation efficacy, primary screening” value was “inactive”. Further, in series [4], the “p53 activation efficacy, cherry pick confirmation” value was 104.439 and the “p53 activation efficacy, primary screening” value worked out at 78.699. The EC50 in series [4] (setting [9]) was found to be 34.4 µM. For the same molecule, the EC50 in series [4] (setting [10]) was 47.6 µM.
As to `CCN(CC)CCCC(C)Nc1c2ccc(Cl)cc2nc2ccc(OC)cc12` (stereo not shown) [Quinacrine dihydrochloride dihydrate], in series [1], the “Viability EC50, cherry pick confirmation” value is “inactive”; the “Viability EC50, primary screening” value was “inactive”; the “Viability efficacy, cherry pick confirmation” value is “inactive”; the “Viability efficacy, primary screening” value was “inactive”. Also, in series [2], the “p53 activation EC50, cherry pick confirmation” value was “inactive”; the “p53 activation EC50, primary screening” value was “inactive”; the “p53 activation efficacy, cherry pick confirmation” value was “inactive”; the “p53 activation efficacy, primary screening” value was “inactive”. In series [3], the “p53 activation EC50, cherry pick confirmation” value is “inactive”; the “p53 activation EC50, primary screening” value is “inactive”; the “p53 activation efficacy, cherry pick confirmation” value was “inactive”; the “p53 activation efficacy, primary screening” value was “inactive”. The 50% effective concentration (EC50) in series [4] (setting [5]) was 8.34 µM. For the same molecule, the 50% effective concentration (EC50) in series [4] (setting [6]) came out at 20.7 µM. Further, the Emax in series [4] (setting [7]) was determined as 271%. Also, in series [4] (setting [8]), the Emax came to 79.8%.
For `COC(=O)/C=C(\C)OP(=O)(OC)OC` [Mevinphos], in series [1], the “Viability EC50” value is “inactive” and the Viability efficacy entry was “inactive”. In series [2], the half-maximal effective concentration (EC50) amounted to 7.96 µM; the p53 activation efficacy was 77.3871 and 64.7167. In addition, the “p53 activation EC50” value in series [3] is “inactive”. Besides, in series [4], the “p53 activation EC50” value is “inactive” and the p53 activation efficacy entry was “inactive”.
On to `CCOC(=O)c1c(N)sc2c1CCN(Cc1ccccc1)C2` [Tinoridine], for which, in series [1], the “Viability EC50” value was “inactive” and the Viability efficacy result is “inactive”. In series [2], the “p53 activation EC50” value is “inactive”. The “p53 activation EC50” value in series [3] is “inactive”. In series [4], the “p53 activation EC50” value was “inactive” and the p53 activation efficacy result was “inactive”.
In the case of `O=C(NC(=O)c1c(F)cccc1F)Nc1cc(Cl)c(Oc2ncc(C(F)(F)F)cc2Cl)c(Cl)c1` [Chlorfluazuron], in series [1], the “Viability EC50, cherry pick confirmation” value was “inactive”; the “Viability EC50, primary screening” value is “inactive”; the “Viability efficacy, cherry pick confirmation” value was “inactive”; the “Viability efficacy, primary screening” value was “inactive”. Also, in series [2], the “p53 activation EC50, cherry pick confirmation” value was “inactive”; the “p53 activation EC50, primary screening” value is “inactive”; the “p53 activation efficacy, cherry pick confirmation” value was “inactive”; the “p53 activation efficacy, primary screening” value was “inactive”. Besides, in series [3], the “p53 activation EC50, cherry pick confirmation” value is “inactive”; the “p53 activation EC50, primary screening” value was “inactive”; the “p53 activation efficacy, cherry pick confirmation” value was “inactive”; the “p53 activation efficacy, primary screening” value was “inactive”. Further, in series [4], the “p53 activation EC50, cherry pick confirmation” value was “inactive” and the “p53 activation efficacy, cherry pick confirmation” value is “inactive”. Further, in series [4] (setting [6]), the 50% effective concentration (EC50) amounted to 31.4 µM. In addition, in series [4] (setting [8]), the Emax turned out to be 80.6%.
As for `N#CSCSC#N` [Methylene bis(thiocyanate)], the half-maximal effective concentration (EC50) is 38.1 µM and 36 µM and 40.4 µM in series [1] (setting [11]); 39.6 µM and 47 µM and 35.4 µM in series [1] (setting [12]); 10.1 µM in series [4] (setting [9]); 11.8 µM in series [4] (setting [10]). Also, the “p53 activation EC50, cherry pick confirmation” value in series [2] and in series [3] was “inactive” in each case. The “p53 activation EC50, primary screening” value in series [2] and in series [3] was “inactive” in each case. Also, the “p53 activation efficacy, cherry pick confirmation” value in series [2] is “inactive”; in series [3], “inactive”; in series [4], 39.736. For the same molecule, the “p53 activation efficacy, primary screening” value in series [2] was “inactive”; in series [3], “inactive”; in series [4], 49.8917.
With Tricyclodecanedimethanol diacrylate, the “Viability EC50, cherry pick confirmation” value in series [1] is “inactive”. In addition, the “Viability EC50, primary screening” value in series [1] was “inactive”. Also, the 50% effective concentration (EC50) in series [1] (setting [11]) amounted to 49.4 µM; in series [1] (setting [12]), 49.5 µM; in series [4] (setting [9]), 30.6 µM; in series [4] (setting [10]) it was 44.5 µM. The “p53 activation EC50, cherry pick confirmation” value in series [2] and in series [3] was “inactive” throughout. Further, the “p53 activation EC50, primary screening” value in series [2] and in series [3] was “inactive” throughout. Besides, the “p53 activation efficacy, cherry pick confirmation” value was “inactive” in series [2], “inactive” in series [3] and 41.6463 in series [4]. The “p53 activation efficacy, primary screening” value was “inactive” in series [2], “inactive” in series [3] and 37.7867 in series [4].
Take `O=S(=O)(O)c1ccccc1C=Cc1ccc(-c2ccc(C=Cc3ccccc3S(=O)(=O)O)cc2)cc1.[Na].[Na]` [Disodium 4,4'-bis(2-sulfostyryl)biphenyl]: in series [1], the “Viability EC50, HLM” value was “inactive”; the “Viability EC50, No MS” value was “inactive”; the “Viability EC50, RLM” value is “inactive”; the “Viability Efficacy, HLM” value was “inactive”. In addition, in series [1], the “Viability Efficacy, No MS” value is “inactive” and the “Viability Efficacy, RLM” value was “inactive”. In addition, in series [2], it took 29.8 µM to reach a half-maximal effect (EC50). Moreover, the 50% effective concentration (EC50) in series [2] (read-out: p53 activation EC50, RLM) was 29.8 µM and 24.9 µM. For the same molecule, the “activity outcome in p53-bla assay” value in series [3] is given as “active”. Further, the concentration giving a half-maximal response (EC50) in series [3] (read-out: p53 activation EC50, HLM) was 18.8 µM and 28.2 µM. Besides, in series [4], the “activity outcome in p53-bla assay” value is “also active in the absence of microsomes”; the “p53 activation Efficacy, No MS” value is 37.8243% and 32.5267%. The concentration giving a half-maximal response (EC50) in series [4] (read-out: p53 activation EC50, No MS) is 25.3 µM and 34.2 µM.
Regarding `CNC(=O)O/N=C/C(C)(C)SC` [Aldicarb], in series [1], the “Viability EC50” value was “inactive” and the Viability efficacy entry is “inactive”. In addition, the “p53 activation EC50” value in series [2] was “inactive”. Further, the “p53 activation EC50” value in series [3] is “inactive”. In series [4], the “p53 activation EC50” value was “inactive” and the p53 activation efficacy result was “inactive”.
